Measured values taken from US20030099613A1, “Viral replicons and viruses dependent on inducing agents” (priority 1999, published 2003).

Test system: dox-dependent SWS virus
Test: Sensitivity of HIV-rtTA (SWS) replication to antiretroviral drugs in SupT1 cells
Type: cell-based, HIV-1
Details: infected SupT1 cells maintained in the presence of dox
Method: FIG. 4. Replication of HIV-rtTA can be turned on and turned off. These experiments were performed with the SWS virus, but similar results have been obtained with the other HIV-rtTA variants. The SWS virus was used (2200 ng CA-p24) to infect 6×10^6 SupT1 cells at day 0. […] In panel B, the effect of delayed addition of dox (1000 ng/ml) was analyzed at day 3 after infection. In panel C, the infected cells were grown in 1000 ng/ml dox for 3 days, at which point the cells were washed and incubated in the absence or presence of dox. In panel D, infected cells were maintained in the presence of dox and the effect of the Protease-inhibitor Saquinavir (200 nM) and the RT-inhibitor AZT ([…]) was tested.
As an additional safety test, the sensitivity of the HIV-rtTA virus to antiretroviral drugs that are in current clinical use was analyzed. Because the basic set of viral genes in HIV-rtTA was not altered, including the genes encoding Protease (Pro) and Reverse Transcriptase (RT), these viruses are expected to remain fully sensitive to well-known drugs that target these essential enzymes.

Structure (SMILES)	inhibition of SWS virus replication (AZT 1 μg)	inhibition of SWS virus replication (Saquinavir 200 nM)
Cc1cn([C@H]2C[C@H](N=[N+]=[N-])[C@@H](CO)O2)c(=O)[nH]c1=O [AZT, 3′-azido, 3′-deoxythymidine]	inhibited efficiently	–
CC(C)(C)NC(=O)[C@@H]1C[C@@H]2CCCC[C@@H]2CN1C[C@@H](O)[C@H](Cc1ccccc1)NC(=O)[C@H](CC(N)=O)NC(=O)c1ccc2ccccc2n1 [Saquinavir]	–	inhibited efficiently
